The test system of assay [1] is HT-29. The experiment in a line: Antiproliferative activity against human HT-29 cells assessed as cell viability at 10 uM after 24 hrs by trypan blue assay. The format is functional. The conditions noted are these: HT-29, 24 h, read-out: Activity.
Assay [2] has as its system HT-29. The experiment in a line: Antiproliferative activity against human HT-29 cells assessed as inhibition of cell viability after 24 hrs by trypan blue assay. The format is functional, cell-based.
In assay [3] the test system is HT-29. The experiment in a line: Antiproliferative activity against human HT-29 cells assessed as inhibition of cell viability at 10 uM by trypan blue assay. It is filed as functional, cell-based. Conditions: TDE = time-dependent effect.
For assay [4], the system named is SW-620. The experiment in a line: Antiproliferative activity against human SW620 cells assessed as inhibition of cell viability at 5 to 10 uM after 24 hrs by trypan blue assay. The format is functional, cell-based.
The subject of assay [5] is HT-29. The experiment in a line: Inhibition of carbonic anhydrase 9 expression in human HT-29 cells after 18 hrs by Western blot analysis. The format is functional, cell-based.
Assay [6] relates to HT-29. The experiment in a line: Inhibition of carbonic anhydrase 12 expression in human HT-29 cells after 18 hrs by Western blot analysis. It is filed as functional, cell-based. In general terms: Immunoblotting shows a protein as a band on a membrane.
Assay [7] has as its system HT-29. The experiment in a line: Inhibition of carbonic anhydrase 1 expression in human HT-29 cells at 2.5 to 10 uM after 18 hrs by Western blot analysis. The format is functional, cell-based.
The test system of assay [8] is HT-29. The experiment in a line: Inhibition of carbonic anhydrase 2 expression in human HT-29 cells at 2.5 to 10 uM after 18 hrs by Western blot analysis. It is filed as functional, cell-based.

The structures appear in SMILES notation. Active and inactive are the calls of the source. The calls are words filed in the database; no cut-off is given here.

Regarding `NS(=O)(=O)c1ccc(Nc2nc(-c3ccc(Cl)cc3)nc3ccccc23)cc1`, the viability at 10 µM in assay [1] stood at 12%. Moreover, the inhibition result was “Dose-dependent effect” in assay [2], “tde” in assay [3], “Dose-dependent effect” in assay [5] and “Dose-dependent effect” in assay [6]. In assay [2] (HT-29, 24 h), the IC50 (as a rule, the concentration that gives 50% inhibition) amounted to 5.45 µM. In addition, the inhibition result in assay [4] is “Active”. Further, the inhibition result in assay [7] and in assay [8] was “inactive” in each case.
